In a melting point compilation (Tetko et al.; mined from patent text by program, amines drawn as free bases though some values may be those of a salt):

First: COc1ccc(Cc2cnc(-c3ccccc3)c(-c3ccccc3)n2)cc1
Second: Cc1oc(-c2ccccc2)nc1COc1ccc(Cn2cc(C(=O)O)c(-c3ccccc3)n2)cc1
The melting point of the first is lower: 102 to 103 °C for the first, 165 to 166 °C for the second.

Compared with `CC1CC(=O)c2c(C(=O)Nc3cccnc3)c[nH]c2C1` (centres undefined), `O=C(Nc1cnccn1)Nc1cccc2c1C1CCCCN1C2=O` (centres undefined) is lower in melting point: 225 to 227 °C for the first, 215 °C for the second.

First: CS(=O)(=O)c1ccc(-c2cnn(-c3cccc(Cl)c3)c(=O)c2SCc2ccccc2)cc1
Second: O=C(NCCc1ccccc1)c1ccc(S(=O)(=O)NC(=O)c2ccc(C(=O)NCCO)nc2)cc1
The melting point of the first is lower: 142 to 145 °C for the first, 228 to 230 °C for the second.

First: N#Cc1ccc(NC(=O)OC2CN3CCC2CC3)cc1 (centres undefined)
Second: CS(=O)(=O)Nc1ccc(C(=O)NC(=O)N2CCC(Oc3ccc(Cl)cc3)CC2)cc1
The melting point of the first is higher: 180 to 182 °C for the first, 79 °C for the second.

Compared with `CC1(C)CCC[C@]2(C)OC(=O)C[C@H]12`, `CCC1CC2C3CCC4=CC(=O)CCC4C3CCC2(C)C1O` (centres undefined) is higher in melting point: 74 to 75 °C for the first, 150 to 152 °C for the second.

Compared with `CC(=O)Oc1c(Sc2ccccc2)sc2ccccc12`, `c1ccc(CNc2nc3ccccc3s2)cc1` is higher in melting point: 88 to 90 °C for the first, 159 °C for the second.

Compared with `COc1ccccc1Nc1ncc(C(=O)O)c(=O)[nH]1`, `COC(=O)c1c(C#N)ccc(NC(=NC#N)Nc2ccccc2Br)c1O` is lower in melting point: 251 to 253 °C for the first, 210 to 211 °C for the second.

First: CC(C)(C)OC(=O)c1ncn2c1C(C)(C)N(C(=O)N1CCCC1)c1cc(F)ccc1-2
Second: CC(=O)OCCn1c(C)c(C(=O)Nc2ccc(OCC(C)(C)C)c(C#N)c2)c2cc(F)ccc21
The melting point of the first is higher: 168 to 170 °C for the first, 124 to 125 °C for the second.

Compared with `Cc1cc(C)cc(N2CCN(C(=O)Nc3cc(-c4cccnc4)nc4ccccc34)CC2)c1`, `Cc1ccccc1C(=O)Nc1ccc(C(=O)N2Cc3cccn3Cc3ccccc32)cc1Cl` is lower in melting point: 211 to 213 °C for the first, 176 to 178 °C for the second.

Compared with `O=C(O)COc1ccc2c(-c3ccc(Cl)cc3)noc2c1Cl`, `O=C(O)COc1ccc(SCc2cc(-c3ccc(C(F)(F)F)cc3)on2)c2c1CCCO2` is lower in melting point: 254 to 257 °C for the first, 112 to 113 °C for the second.

First: CCCCc1nc2ccccc2n1Cc1ccc(-c2ccccc2CO)cc1
Second: Cc1oc(-c2ccccc2)nc1COc1ccc(COc2ncccc2CC(=O)O)cc1
The melting point of the first is higher: 162 to 163 °C for the first, 144 to 145 °C for the second.

First: Cc1cccc(Cc2c[nH]cn2)c1
Second: Nc1ccc(Cc2ccccc2)cn1
The melting point of the first is higher: 127 to 130 °C for the first, 79 to 80 °C for the second.

Compared with `Nc1ccc(CS(=O)(=O)NCc2ccccc2)cc1`, `Nc1ccc(-n2cc(C(=O)O)c(=O)cc2-c2ccc3ccccc3c2)cc1` is higher in melting point: 117 to 118 °C for the first, 148 to 151 °C for the second.

First: O=C1Nc2ccccc2C12COc1ccc3c(c12)N(Cc1ccccn1)ON3 (centres undefined)
Second: O=C1OC(=O)c2cc(C#Cc3cccc4ccccc34)ccc21
The melting point of the first is lower: 180 to 182 °C for the first, 220 to 222 °C for the second.

First: O=C(c1ccc(F)cc1C(F)(F)F)N1Cc2cccn2Cc2ccccc21
Second: O=c1ccc(C(F)(F)F)cn1-c1ccc(NCCCl)cc1Cl
The melting point of the first is lower: 154 to 155 °C for the first, 160 to 162 °C for the second.

First: O=C(O)Cc1cc(F)cc(Cc2nc3c(F)c(F)cc(F)c3s2)c1
Second: O=C(O)Cc1c(C(=O)c2ccc3c(c2)OCCO3)[nH]c2cc(Cl)ccc12
The melting point of the first is lower: 139 to 142 °C for the first, 233 °C for the second.

First: CCCCCCCCCCCCCCOc1ccc(NC(=O)c2cccc(CBr)c2)cc1
Second: CCCCCCCCCCCCN(c1ccccc1)c1cccc2ccccc12
The melting point of the first is higher: 140 to 142 °C for the first, 116 °C for the second.

First: CCC1=Nc2cccc(Cl)c2C(=O)C1
Second: Cc1ccc(Cl)cc1N1C(=O)CN(C(C)C)C1=S
The melting point of the first is higher: 236 to 239 °C for the first, 142 to 144 °C for the second.

First: COc1cc(Nc2nccc(Nc3ccc4c(ccn4S(=O)(=O)c4ccccc4)c3)n2)cc(OC)c1OC
Second: COC(=O)[C@@](C#N)(Cc1ccccn1)[C@H](c1ccccc1OC)c1cccc2ccccc12 (relative stereo)
The melting point of the first is lower: 127 °C for the first, 194 to 196 °C for the second.

First: CCCc1nccn1N=Cc1cc(C(C)(C)C)c(O)c(C(C)(C)C)c1
Second: Cc1c(O)c(C=O)c2nc3c(O)ccc(C(=O)NCCN(C)C)c3nc2c1O
The melting point of the first is lower: 160 to 161 °C for the first, greater than 250 °C for the second.

Compared with `Cc1cncc(CNC(=O)c2sc(N3CCN(CC(C)C)C3=O)nc2C)n1`, `COc1ccc(-c2nn(C(C)C)c(=O)c(C(N)=O)c2-c2ccc(OC)cc2)cc1` is higher in melting point: 139 to 142 °C for the first, 165 to 166 °C for the second.

Compared with `COc1ccc(Cn2cnc3c(Cl)nc(C(F)(F)F)nc32)cc1`, `Cc1ccc(N2C(=O)C(Cl)=C(C(=O)c3ccc(C(C)C)cc3)C2c2ccc(OC(F)(F)F)cc2)nn1` (centres undefined) is higher in melting point: 104 to 106 °C for the first, 293 °C for the second.

First: Cc1cccc2c1c(N1CCOCC1)nc1c(-c3nc(C4CC4)no3)ncn12
Second: COc1cccc2c1nc(C(F)F)n2-c1nc(Nc2ccncn2)nc(N2CCOCC2)n1
The melting point of the first is higher: 262 to 266 °C for the first, 234 to 236 °C for the second.

First: CCCCCNC(=O)N(CCCc1ccncc1)CCC12CC3CC(CC(C3)C1)C2
Second: COC1CCCCC1(O)c1ccncc1 (centres undefined)
The melting point of the first is lower: 47 to 50 °C for the first, 98 to 101 °C for the second.

First: Cc1cc(CNc2cccc3c2C(=O)N(C2CCC(=O)NC2=O)C3=O)oc1C (centres undefined)
Second: CNCC1Cc2cc(OC)cc(-c3ccccc3F)c2O1 (centres undefined)
The melting point of the first is higher: 127 to 129 °C for the first, 110 to 112 °C for the second.

`COC(=O)CCc1ccc(-n2c(-c3ccccc3)nn(-c3ccc(C#N)cc3)c2=O)cc1` and `COc1ccc(-n2nc(NC(=O)N(C)C)cc2-c2ccc(OCCNC(N)=O)cc2)cc1` cannot be ordered by melting point: 190 to 194 °C for the first, 193 to 196 °C for the second.

First: COC(=O)[C@@H](NC(=O)OC(C)(C)C)[C@H](O)c1ccccc1
Second: CCC(=O)Nc1cccc(NC(=O)C=C(C)OC)c1
The melting point of the first is lower: 101 to 102 °C for the first, 155 °C for the second.

First: CCCCN(C)C(=O)CS(=O)CCCCCCOc1ccc(C2=C(c3ccccc3)CCCc3cc(O)ccc32)cc1 (centres undefined)
Second: O=C1CCC(=O)N1Cc1nc2sc3c(c2c(-c2ccc(OCc4ccccc4)cc2)c1Cl)CCNC3
The melting point of the first is lower: 72 to 73 °C for the first, 247 to 248 °C for the second.

First: CCOC(=O)c1ccc(-c2cc(O)c(C(CC(C)C)SC3CCCC3)c(=O)o2)cc1 (centres undefined)
Second: CC(C)CC(=O)Nc1cccc(-c2ccnc3c(C(=O)C4CCCC4)cnn23)c1
The melting point of the first is higher: 174 to 176 °C for the first, 69 to 71 °C for the second.

First: CCOC(=O)C1=C(C)NC(C)=C(C(=O)OCC)C1c1csc2ccc([N+](=O)[O-])cc12
Second: CC1=C(C(=O)O)C(c2cccc([N+](=O)[O-])c2)NC(=N[N+](=O)[O-])N1 (centres undefined)
The melting point of the first is higher: 255 to 259 °C for the first, 236 to 238 °C for the second.

First: CC1(C2OCCO2)C=CC(C#N)=CC1 (centres undefined)
Second: Fc1ccc2c(C3CCN(CCC4COc5ccccc5O4)CC3)noc2c1 (centres undefined)
The melting point of the first is lower: 70 °C for the first, 112 to 113 °C for the second.

`C=CCNc1c(CO)cnc2cn(C)nc12` and `C=CCOc1cn(C)c2cc(F)ccc2c1=O` cannot be ordered by melting point: 151 to 159 °C for the first, 158 to 159 °C for the second.

First: Cc1ccc(S(=O)(=O)NC(=O)C2C(=O)CC(C(C)(C)C)CC2=O)cc1 (centres undefined)
Second: Cc1ccc2c(c1)C(c1ccc(OCC(=O)O)cc1)C(=O)O2 (centres undefined)
The melting point of the first is lower: 162 to 163 °C for the first, 198 to 203 °C for the second.

First: CCCCCC(=O)c1c(C)n(C(=O)OC)c(=O)n1C(=O)OC
Second: COC(=O)c1c2snnc2nn1C
The melting point of the first is lower: 84 to 86 °C for the first, 115 to 121 °C for the second.

First: O=S(=O)(/C=C/c1ccccc1)c1ncc(Cl)cn1
Second: Cn1ncnc1/C=C/c1ccccc1
The melting point of the first is higher: 150 °C for the first, 67 to 70 °C for the second.

Going from `CC(C)(CF)C(=O)Cn1cncn1` to `CCN(CC)C(=O)c1cc2sccc2c(-c2ccccc2Cl)n1`, the melting point rises from 59 °C to 119 °C.

Compared with `CCOc1nc(N2CCN(C(=O)CCC(=O)O)CC2)nc(N2CCS(=O)CC2)c1[N+](=O)[O-]`, `CS(=O)(=O)Nc1ccc(N2CCN(c3cc([N+](=O)[O-])ccn3)CC2)cc1` is lower in melting point: 198 to 200 °C for the first, 182 to 183 °C for the second.

Compared with `COc1ccc(-c2ccoc2)c2c1c(CCN(C)C)cn2C`, `CCOCc1nc2c(N)nc3cc(-n4ccnc4)ccc3c2n1CCCOC` is higher in melting point: 80 to 81 °C for the first, 168 to 169 °C for the second.

Compared with `CCN(CC)CCNC(=O)c1cc(Cl)c(N)cc1OCCCCS(C)=O` (centres undefined), `Nc1c(Cl)cc(C(O)CNCCC#CCOCCc2ccccc2)cc1Cl` (centres undefined) is lower in melting point: 80 to 83 °C for the first, 62.5 to 63 °C for the second.

First: Cc1ccc(S(=O)O)cc1
Second: CC(NC(N)=S)c1ccc(NS(C)(=O)=O)cc1 (centres undefined)
The melting point of the first is lower: 55 to 57 °C for the first, 77 °C for the second.

First: O=C(O)CCCC(CCCNS(=O)(=O)c1ccc(Cl)cc1)CCc1cccnc1 (centres undefined)
Second: O=C(O)CCCCCSc1ccc(-c2ccc(Cl)cc2)cc1
The melting point of the first is lower: 83 to 85 °C for the first, 156 to 157 °C for the second.

First: CS(=O)(=O)Nn1c(=O)[nH]c2cc(C(F)(F)F)c(N3CCC3)cc2c1=O
Second: O=S(=O)(N[C@H]1CC[C@H](CCN2CCN(c3nccc4c3OCC4)CC2)CC1)c1ccc(F)cc1
The melting point of the first is higher: 266 to 283 °C for the first, 148 °C for the second.

Compared with `COc1ccc2c(c1)C(=NO)c1c-2c(N2CCNCC2)nc2ccccc12`, `CN(C)c1cccc(Oc2ccccc2N2CCN(CCCc3c[nH]c4ccccc34)CC2)c1` is higher in melting point: 146 to 147 °C for the first, 156 to 162 °C for the second.

First: CC(C)NCC(O)COc1cccc2c1CCC(O)C2 (centres undefined)
Second: Cc1nc2c3c(c(C(=O)N4CC(F)C4)cc2n1C)CCC1(Cc2ccccc2C1)N3
The melting point of the first is lower: 136 to 141 °C for the first, 259 to 260 °C for the second.

First: CC(=O)Nc1ccc(-n2ccnc2SCc2ccccc2N2CCOCC2)nc1
Second: COc1cc(Nc2c(C#N)cnc3cc(-c4cncc(CN5CCOCC5)c4)ccc23)c(Cl)cc1Cl
The melting point of the first is higher: 164 to 167 °C for the first, 141 to 143 °C for the second.

First: O=C(O)c1cccc2nnsc12
Second: COC(=O)c1ccc(CNS(C)(=O)=O)cc1N
The melting point of the first is higher: 239 to 240 °C for the first, 120 to 121 °C for the second.

Compared with `Nc1nc(NC2CC2c2ccccc2)c2ncn(C3C=CC(CO)C3)c2n1` (centres undefined), `Cc1cc(-c2ccccc2)c(C)cc1-c1ccccc1` is higher in melting point: 188 to 190 °C for the first, 301 to 304 °C for the second.

First: Cc1cc(C=O)c(Cl)nc1C
Second: CN(C(=O)Nc1ccccc1)c1ccc(Cl)cc1C(=O)c1ccccc1
The melting point of the first is lower: 69 to 70 °C for the first, 158 to 160 °C for the second.

Compared with `CC#CCOc1cc(Oc2cccc(C#N)c2)ncn1`, `COCCNC(=O)c1cccc(-c2cccc3cc(Cc4ccc(Cl)s4)sc23)c1` is lower in melting point: 121 °C for the first, 104 to 105 °C for the second.

Molecule `COc1cc2cc(c1Cl)N(C)C(=O)CC(OC(=O)C(C)N(C)C(=O)C(C)C)C1(C)OC1C(C)C1CC(O)(NC(=O)O1)C(OC)C=CC=C(C)C2OC` (centres undefined) has a melting point of 176 to 179 °C.
